Counter-ions that a name gives are not always drawn.
Test system: not given
Assay: not given
Details: not given
In the case of `NC/C(=C\F)CCc1cccc(F)c1.O=C(O)C(F)(F)F`, the melting point is reported as 47 to 48 °C. Work on `NC/C(=C/F)CCc1cccc(F)c1.O=C(O)C(F)(F)F` yielded a melting point of 72 to 73 °C. `NC/C(=C/F)CCc1cc(F)cc(C(F)(F)F)c1.O=C(O)C(F)(F)F` showed a melting point of 58 to 59 °C. In the case of `COc1ccc(C/C(=C\F)CN)cc1OC.Cl`, the melting point is reported as 204 to 205 °C. Work on `COc1ccc(C/C(=C/F)CN)cc1OC.Cl` yielded a melting point of 220 to 221 °C. With `COc1cccc(CC/C=C(/F)CN)c1.Cl` the melting point was 112 to 113 °C. Work on `NCC(=CF)Cc1cccc(O)c1` (as salt: citrate) yielded a melting point of 145 to 146 °C. With `CSc1cccc(C/C(=C/F)CN)c1` (as salt: hydrochloride) the melting point was 145 to 146 °C. In the case of `Cc1ccc(C/C(=C/F)CN)cc1` (as salt: hydrochloride), the melting point is reported as 150 to 151 °C. `NC/C(=C\F)Cc1ccc(-c2ccccc2)cc1` (as salt: hydrochloride) showed a melting point of 219 to 220 °C. Work on `NC/C(=C\F)Cc1ccc(F)cc1` (as salt: hydrochloride) yielded a melting point of 139 to 140 °C. For `NC/C(=C\F)Cc1cccc(C(F)(F)F)c1` (as salt: hydrochloride), the melting point was 161 to 162 °C. For `Cc1ccc(C/C(=C/F)CN)cc1F` (as salt: hydrochloride), the melting point was 160 to 161 °C. With `Cc1cc(C/C(=C/F)CN)ccc1F` (as salt: hydrochloride) the melting point was 158 to 159 °C. Work on `NC/C(=C\F)Cc1cc(F)cc(Cl)c1` (as salt: hydrochloride) yielded a melting point of 158 to 159 °C. In the case of `NC/C(=C\F)Cc1ccc(F)cc1F` (as salt: hydrochloride), the melting point is reported as 130 to 131 °C. `NC/C(=C\F)Cc1cc(Cl)cc(Cl)c1` (as salt: hydrochloride) gave a melting point of 184 to 185 °C. Work on `NC/C(=C\F)Cc1ccc(F)c(F)c1` (as salt: hydrochloride) yielded a melting point of 141 to 142 °C. For `NC/C(=C\F)Cc1cccc(Cl)c1` (as salt: hydrochloride), the melting point was 145 to 146 °C. Compound `NC/C(=C/Cl)CCc1ccccc1` (as salt: hydrochloride) has a melting point of 97 to 98 °C. In the case of `NC/C(=C/Cl)CCc1ccc(C(F)(F)F)cc1` (as salt: hydrochloride), the melting point is reported as 89 to 90 °C. With `COc1cc(C/C(=C/F)CN)cc(OC)c1` (as salt: hydrochloride) the melting point was 194 to 195 °C. With `COCc1cccc(C/C=C(/F)CN)c1` (as salt: hydrochloride) the melting point was 165 to 166 °C. Compound `Cc1cccc(C/C(=C/F)CN)c1` (as salt: hydrochloride) [Compound I-13, (Z)-3-Fluoro-2-(3-methylbenzyl)allylamine hydrochloride] has a melting point of 118 to 119 °C. For `COc1ccc(C/C(=C/F)CN)cc1F` (as salt: hydrochloride) [Compound I-21, (Z)-3-Fluoro-2-(3-fluoro-4-methoxybenzyl)allylamine hydrochloride], the melting point was 170 °C (dec.). In the case of `NC/C(=C\F)Cc1ccc(F)c(Cl)c1` (as salt: hydrochloride) [Compound I-23, (Z)-3-Fluoro-2-(3-chloro-4-fluorobenzyl)allylamine hydrochloride], the melting point is reported as 163 to 164 °C. For `NC/C(=C\F)Cc1cc(F)ccc1F` (as salt: hydrochloride) [Compound I-24, (Z)-3-Fluoro-2-(2,5-difluorobenzyl)allylamine hydrochloride], the melting point was 105 to 106 °C. Compound `COc1ccc(CC/C(=C/Cl)CN)cc1` (as salt: hydrochloride) [Compound I-33, (Z)-3-Chloro-2-(4-methoxyphenylethyl)allylamine hydrochloride] has a melting point of 123 to 124 °C. Compound `CCOc1ccc(CC/C(=C/Cl)CN)cc1` (as salt: hydrochloride) [Compound I-34, (Z)-3-Chloro-2-(4-ethoxyphenylethyl)allylamine hydrochloride] has a melting point of 160 to 162 °C. Compound `CCCCOc1ccc(CC/C(=C/Cl)CN)cc1` (as salt: hydrochloride) [Compound I-36, (Z)-3-Chloro-2-(4-n-butoxyphenylethyl)allylamine hydrochloride] has a melting point of 133 to 134 °C. `Cc1cccc(CC/C(=C/Cl)CN)c1` (as salt: hydrochloride) [Compound I-37, (Z)-3-Chloro-2-(3-methylphenylethyl)allylamine hydrochloride] gave a melting point of 102 to 103 °C. For `COc1cccc(CC/C(=C/Cl)CN)c1` (as salt: hydrochloride) [Compound I-38, (Z)-3-Chloro-2-(3-methoxyphenylethyl)allylamine hydrochloride], the melting point was 139 to 140 °C. Compound `NC/C(F)=C\Cc1cccc(C(F)(F)F)c1` (as salt: hydrochloride) [II-2, (E)-2-Fluoro-4-(3-trifluoromethylphenyl)-2-butenylamine hydrochloride] has a melting point of 145 to 147 °C. In the case of `CS(=O)(=O)c1ccc(C/C(=C/F)CN)cc1` (as salt: trifluoroacetate), the melting point is reported as 49 to 50 °C. Work on `NC/C(=C\Cl)CCc1ccc(F)cc1` (as salt: trifluoroacetate) yielded a melting point of 69 to 70 °C. For `NC/C(=C\Cl)CCc1ccc(Cl)cc1` (as salt: trifluoroacetate), the melting point was 89 to 90 °C. In the case of `Cc1ccc(CC/C(=C/Cl)CN)cc1.Cl` [Compound I-39-Z, (Z)-3-Chloro-2-(4-methylphenylethyl)allylamine hydrochloride], the melting point is reported as 135 °C (dec.). Compound `NC/C(=C/Cl)CCc1ccc(F)cc1.O=C(O)C(F)(F)F` [Compound I-42-Z, (E)-3-Chloro-2-(4-fluorophenylethyl)allylamine trifluoroacetate] has a melting point of 52 to 53 °C. With `NC/C(=C/Cl)CCc1ccc(Cl)cc1.O=C(O)C(F)(F)F` [Compound I-43-Z, (E)-3-Chloro-2-(4-chlorophenylethyl)allylamine trifluoroacetate] the melting point was 68 to 70 °C. `Cc1cccc(CC/C(=C\Cl)CN)c1.Cl` [Compound I-48-E, (E)-3-Chloro-2-(3-methylphenylethyl)allylamine hydrochloride] gave a melting point of 95 to 97 °C. `COc1cccc(CC/C(=C\Cl)CN)c1.Cl` [Compound I-49-E, (E)-3-Chloro-2-(3-methoxyphenylethyl)allylamine hydrochloride] gave a melting point of 85 to 87 °C. In the case of `Cc1ccc(CC/C(=C\Cl)CN)cc1.Cl` [Compound I-50-E, (E)-3-Chloro-2-(4-methylphenylethyl)allylamine hydrochloride], the melting point is reported as 124 to 125 °C. `Cl.NC/C(=C/Cl)CCc1cc(F)cc(C(F)(F)F)c1` [Compound I-51-E, (E)-3-Chloro-2-(3-fluoro-5-trifluoromethylphenylethyl)allylamine hydrochloride] gave a melting point of 96 to 97 °C. For `Cl.NC/C(F)=C\Cc1cc(C(F)(F)F)cc(C(F)(F)F)c1` [II-12-E, (E)-2-Fluoro-4-(3,5-ditrifluoromethylphenyl)-2-butenylamine hydrochloride], the melting point was 197 to 198 °C. For `COc1ccccc1C/C=C(/F)CN.Cl` [II-17-E, (E)-2-Fluoro-4-(2-methoxyphenyl)-2-butenylamine hydrochloride], the melting point was 133 to 134 °C. Work on `COc1cccc(C(C)/C=C(/F)CN)c1.Cl` (centres unmarked) [II-18-E] yielded a melting point of 133 to 134 °C.

Target: T1, Human SSAO (Homo sapiens, UniProt Q16853)
T1 construct: rat lung or human umbilical cord homogenates were prepared by chopping the freshly removed tissue; from tissue; host or cells: human umbilical cord homogenate (25,000 g supernatant)
T1 sequence (Q16853 1-763): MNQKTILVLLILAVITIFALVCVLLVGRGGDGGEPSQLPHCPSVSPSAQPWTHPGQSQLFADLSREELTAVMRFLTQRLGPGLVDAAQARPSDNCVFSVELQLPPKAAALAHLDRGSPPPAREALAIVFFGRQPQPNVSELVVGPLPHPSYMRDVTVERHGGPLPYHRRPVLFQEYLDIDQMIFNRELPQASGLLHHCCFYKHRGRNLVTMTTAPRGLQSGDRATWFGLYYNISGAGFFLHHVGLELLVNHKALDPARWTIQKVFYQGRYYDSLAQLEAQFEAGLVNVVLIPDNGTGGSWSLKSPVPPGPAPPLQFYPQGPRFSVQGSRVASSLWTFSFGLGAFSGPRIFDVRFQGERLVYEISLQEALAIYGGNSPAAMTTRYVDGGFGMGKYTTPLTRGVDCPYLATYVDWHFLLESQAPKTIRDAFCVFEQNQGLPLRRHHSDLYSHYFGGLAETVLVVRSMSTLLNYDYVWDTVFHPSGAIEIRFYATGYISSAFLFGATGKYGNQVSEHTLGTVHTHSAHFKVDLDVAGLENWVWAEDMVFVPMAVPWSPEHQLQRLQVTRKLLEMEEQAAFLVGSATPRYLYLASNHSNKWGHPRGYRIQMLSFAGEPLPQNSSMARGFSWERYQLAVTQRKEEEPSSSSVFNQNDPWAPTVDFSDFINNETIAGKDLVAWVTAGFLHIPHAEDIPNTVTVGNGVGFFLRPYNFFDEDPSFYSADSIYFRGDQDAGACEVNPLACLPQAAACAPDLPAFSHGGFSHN
Assay: In vitro inhibition of SSAO activity, human umbilical cord homogenate, 14C-benzylamine
Assay type: biochemical
Set-up: Human SSAO, percent at given concentration: unit of the concentration uncertain
Details: @7 (unit uncertain)
Description: SSAO activity was measured as described (Lizcano J M. Et al. (1998) Biochem J. 331:69). Briefly, rat lung or human umbilical cord homogenates were prepared by chopping the freshly removed tissue into small pieces and washing them thoroughly in PBS. The tissue was then homogenized 1:10 (w/v) for lung or 1:5 (w/v) for umbilical cord, in 10 mM potassium phosphate buffer (pH 7.8). Homogenates were then centrifuged at 1000 g at 4° C. for 10 min (lung) or 25,000 g for 30 min (umbilical cord); the supernatants were kept frozen until ready to use. Lung or umbilical cord homogenate was preincubated with clorgyline and pargyline at 1 μM to inhibit MAO-A and -B activity, respectively, and SSAO inhibitors were generally present at 1 nM-10 μM. The reaction was initiated by addition of 20 μM ^14C— benzylamine as substrate. The reaction was carried out at 37° C. in a final volume of 400 μL of 100 mM potassium phosphate buffer (pH 7.2) and stopped with 100 μl of 2M citric acid. Radioactively labeled products were extracted into toluene/ethyl acetate (1:1, v/v) containing 0.6% (w/v) 2,5-diphenyloxazole (PPO) before liquid scintillation counting.
For `Cl.NC/C(F)=C\Cc1cc(C(F)(F)F)cc(C(F)(F)F)c1` [II-12-E, (E)-2-Fluoro-4-(3,5-ditrifluoromethylphenyl)-2-butenylamine hydrochloride], the “Human SSAO, percent at given concentration” value (“Human SSAO, percent” below) was 55%@7 mM.

Same assay, conditions: @8 (unit uncertain)
For `NC/C(=C/Cl)CCc1ccc(F)cc1.O=C(O)C(F)(F)F` [Compound I-42-Z, (E)-3-Chloro-2-(4-fluorophenylethyl)allylamine trifluoroacetate], the “Human SSAO, percent” value was 73%@8 mM. With `NCC(=O)CCc1ccc(F)cc1` [IV-1, 1-amino-4-(4-fluorophenyl)butan-2-one] the “Human SSAO, percent” value was 45%@8 mM.

Same assay, conditions: @40 (unit uncertain)
In the case of `Cl.NC/C(=C/Cl)CCc1cc(F)cc(C(F)(F)F)c1` [Compound I-51-E, (E)-3-Chloro-2-(3-fluoro-5-trifluoromethylphenylethyl)allylamine hydrochloride], the “Human SSAO, percent” value is reported as 33%@40 mM.

Same assay, conditions: human umbilical cord homogenate; read-out: Human SSAO IC50
For `Cc1ccc(CC/C(=C/Cl)CN)cc1.Cl` [Compound I-39-Z, (Z)-3-Chloro-2-(4-methylphenylethyl)allylamine hydrochloride], the IC50 was 1.2 µM. In the case of `NC/C(=C/Cl)CCc1ccc(Cl)cc1.O=C(O)C(F)(F)F` [Compound I-43-Z, (E)-3-Chloro-2-(4-chlorophenylethyl)allylamine trifluoroacetate], the IC50 is reported as 1.4 µM. `Cc1cccc(CC/C(=C\Cl)CN)c1.Cl` [Compound I-48-E, (E)-3-Chloro-2-(3-methylphenylethyl)allylamine hydrochloride] showed an IC50 of 10 µM. Compound `COc1cccc(CC/C(=C\Cl)CN)c1.Cl` [Compound I-49-E, (E)-3-Chloro-2-(3-methoxyphenylethyl)allylamine hydrochloride] has an IC50 of 5.5 µM. For `Cc1ccc(CC/C(=C\Cl)CN)cc1.Cl` [Compound I-50-E, (E)-3-Chloro-2-(4-methylphenylethyl)allylamine hydrochloride], the IC50 was 1 µM. In the case of `COc1ccccc1C/C=C(/F)CN.Cl` [II-17-E, (E)-2-Fluoro-4-(2-methoxyphenyl)-2-butenylamine hydrochloride], the IC50 is reported as 4.5 µM. For `COc1ccc(CCC(=O)CN)cc1` [IV-3, 1-amino-4-(4-methoxyphenyl)butan-2-one], the IC50 was 3 µM. `COc1cccc(CCC(=O)CN)c1` [IV-8, 1-amino-4-(3-methoxyphenyl)butan-2-one] gave an IC50 of 3.7 µM. `NCC(=O)CCc1cc(F)cc(C(F)(F)F)c1` [IV-10, 1-amino-4-(3-fluoro-5-(trifluoromethyl)phenyl)butan-2-one] gave an IC50 of 1.5 µM.

Source: patent publication US20110269811A1, “INHIBITORS OF SEMICARBAZIDE-SENSITIVE AMINE OXIDASE (SSAO) AND VAP-1 MEDIATED ADHESION USEFUL FOR TREATMENT AND PREVENTION OF DISEASES” (priority 2006, published 2011)
